Source: patent US7582681B2, “Synergistic mixtures of 1,2-alkane diols” (Symrise GmbH & Co. KG, priority 2002, dated 2009)

What was measured:
Test in all cases: Test for adequate preservation (European Pharmacopea), 1,2-diols and 1,2-diol mixtures in O/W emulsion
Assay type in all cases: cell-based
[1] = tested on: Candida albicans ATCC 10231; settings: 3% diol(s) in O/W emulsion
Procedure: (§1) A test for adequate preservation was carried out in accordance with the European Pharmacopea. The test thus consists of the contamination of the formulation, if possible in its final ratio, with a prescribed inoculum of suitable microorganisms, storage of the inoculated formulation at a specific temperature, taking of samples from the vessel at specific intervals and determination of the number of microorganisms in the samples taken in this way. The preserving properties are adequate if, under the conditions of the test, there is a distinct reduction or optionally no increase in the germ count in the inoculated formulations after the prescribed times at the prescribed temperatures. Experimental details of the test procedure are described in the European Pharmacopea (ISBN 3-7692-2768-9; 2001 supplement to the 3rd Edition, page 421-422, chapter 5.1.3). The initial germ count (CFU/g; “0” value) was in the range of 240,000 to 300,000 in the various test series. For the tests for adequate preservation, (a) potentially synergistically active mixtures taken into account and (b), for comparison purposes, the corresponding unmixed 1,2-diols were incorporated in O/W emulsions. […] The variation in the total concentration of 1,2-diols or 1,2-diol mixtures in the O/W emulsions was compensated for by increasing or reducing the water content, so that otherwise identical formulations always comprised 100 parts by weight in total.

[2] = tested on: Escherichia coli ATCC 8739; settings: 3% diol(s) in O/W emulsion
Procedure: as §1

[3] = tested on: Pseudomonas aeruginosa ATCC 9027; settings: 3% diol(s) in O/W emulsion
Procedure: as §1

[4] = tested on: Staphylococcus aureus ATCC 6538; settings: 3% diol(s) in O/W emulsion
Procedure: as §1

[5] = tested on: Aspergillus niger ATCC 16404; settings: for germ count A. niger: 3% diol(s) in O/W emulsion; for reduction in the number of colony forming units (CFU) to the 0 value: Aspergillus niger, dosage of 3%, 28 days
Procedure: A test for adequate preservation was carried out in accordance with the European Pharmacopea. The test thus consists of the contamination of the formulation, if possible in its final ratio, with a prescribed inoculum of suitable microorganisms, storage of the inoculated formulation at a specific temperature, taking of samples from the vessel at specific intervals and determination of the number of microorganisms in the samples taken in this way. The preserving properties are adequate if, under the conditions of the test, there is a distinct reduction or optionally no increase in the germ count in the inoculated formulations after the prescribed times at the prescribed temperatures. Experimental details of the test procedure are described in the European Pharmacopea (ISBN 3-7692-2768-9; 2001 supplement to the 3rd Edition, page 421-422, chapter 5.1.3). The initial germ count (CFU/g; “0” value) was in the range of 240,000 to 300,000 in the various test series. For the tests for adequate preservation, (a) potentially synergistically active mixtures taken into account and (b), for comparison purposes, the corresponding unmixed 1,2-diols were incorporated in O/W emulsions. […] The variation in the total concentration of 1,2-diols or 1,2-diol mixtures in the O/W emulsions was compensated for by increasing or reducing the water content, so that otherwise identical formulations always comprised 100 parts by weight in total. […] The Kull equation enables the pure substances and the active compound mixtures prepared therefrom to be compared in respect of their antimicrobial activity. With this equation the so-called synergy index (SI), which is a measure for a synergistic activity, but also for a possible antagonistic activity, of a mixture having an antimicrobial action, is determined. A synergistic effect is evident if the SI value determined is less than 1. On the other hand, if an SI of precisely 1 is calculated, there is a pure additive effect of two substances having an antimicrobial action. In the case of an SI value greater than 1, on the other hand, there is a (frequently undesired) antagonistic effect.

SMILES | germ count C. albicans ([1]; 0′-count (initial germ count)) | germ count C. albicans ([1]; 24 h) | germ count C. albicans ([1]; 48 h) | germ count C. albicans ([1]; 4 d) | germ count C. albicans ([1]; 7 d) | germ count C. albicans ([1]; 14 d) [CFU/ml] | germ count C. albicans ([1]; 28 d) [CFU/ml] | germ count E. coli ([2]; 0′-count (initial germ count)) | germ count E. coli ([2]; 24 h) | germ count E. coli ([2]; 48 h) | germ count E. coli ([2]; 4 d) | germ count E. coli ([2]; 7 d) | germ count E. coli ([2]; 14 d) [CFU/ml] | germ count E. coli ([2]; 28 d) [CFU/ml] | germ count Ps. aeruginosa ([3]; 0′-count (initial germ count)) | germ count Ps. aeruginosa ([3]; 24 h) | germ count Ps. aeruginosa ([3]; 7 d) | germ count Ps. aeruginosa ([3]; 14 d) | germ count Ps. aeruginosa ([3]; 28 d) | germ count Staph. aureus ([4]; 0′-count (initial germ count)) | further results
CCCC(O)CO (centres unmarked) [PE3, 1,2-pentanediol] | 250,000 CFU/ml | 245,000 CFU/ml | 73,000 CFU/ml | 28,000 CFU/ml | 23,000 CFU/ml | <100 | 0 | 300,000 CFU/ml | 300,000 CFU/ml | 145,000 CFU/ml | 100,000 CFU/ml | 40,000 CFU/ml | 500 | 0 | 290,000 CFU/ml | 145,000 CFU/ml | 0 CFU/ml | 0 CFU/ml | 0 CFU/ml | 240,000 CFU/ml | germ count Ps. aeruginosa ([3]; 48 h): 12,000 CFU/ml; germ count Ps. aeruginosa ([3]; 4 d): 0 CFU/ml; germ count Staph. aureus ([4]; 24 h): 100,000 CFU/ml; germ count Staph. aureus ([4]; 48 h): 12,000 CFU/ml; germ count Staph. aureus ([4]; 7 d): 0 CFU/ml; germ count Staph. aureus ([4]; 14 d): 0 CFU/ml; germ count Staph. aureus ([4]; 28 d): 0 CFU/ml; germ count A. niger ([5]; 0′-count (initial germ count)): 260,000 CFU/ml; germ count A. niger ([5]; 24 h): 180,000 CFU/ml; germ count A. niger ([5]; 48 h): 180,000 CFU/ml; germ count A. niger ([5]; 4 d): 180,000 CFU/ml; germ count A. niger ([5]; 7 d): 140,000 CFU/ml; germ count A. niger ([5]; 14 d): 140,000 CFU/ml; germ count A. niger ([5]; 28 d): 100,000 CFU/ml; reduction in the number of colony forming units (CFU) to the 0 value [5]: did not enable a reduction in the number of colony forming units (CFU) to the desired 0 value
CCCCCCCCC(O)CO (centres unmarked) [DE 3, 1,2-decanediol] | 320,000 CFU/ml | 3,500 CFU/ml | 0 CFU/ml | 0 CFU/ml | 0 CFU/ml | 0 | 0 | 350,00 CFU/ml | 0 CFU/ml | 0 CFU/ml | 0 CFU/ml | 0 CFU/ml | 0 | 0 | 360,000 CFU/ml | 2,600 CFU/ml | 20.0 mill | 15.0 mill | 11.8 mill | 350,000 CFU/ml | germ count Staph. aureus ([4]; 24 h): 3,200 CFU/ml; germ count Staph. aureus ([4]; 48 h): 0 CFU/ml; germ count Staph. aureus ([4]; 7 d): 0 CFU/ml; germ count Staph. aureus ([4]; 14 d): 0 CFU/ml; germ count Staph. aureus ([4]; 28 d): 0 CFU/ml; germ count A. niger ([5]; 0′-count (initial germ count)): 250,000 CFU/ml; germ count A. niger ([5]; 24 h): 73,000 CFU/ml; germ count A. niger ([5]; 48 h): 160,000 CFU/ml; germ count A. niger ([5]; 4 d): 100,000 CFU/ml; germ count A. niger ([5]; 7 d): 100,000 CFU/ml; germ count A. niger ([5]; 14 d): 73,000 CFU/ml; germ count A. niger ([5]; 28 d): 73,000 CFU/ml; reduction in the number of colony forming units (CFU) to the 0 value [5]: did not enable a reduction in the number of colony forming units (CFU) to the desired 0 value
